Experimental data taken from paper PMC12040169 (PLOS Biology, 2025).

test: in vitro; details: human, hela cells, % viability

Compared with `Fc1ccc2nc(Nc3nc(-c4ccncc4)cs3)sc2c1` [CBK287487], `O=C(OCC#CCSc1nnc(-c2ccncc2)o1)c1sc2ccccc2c1Cl` [CBK265677] is lower in viability at 28.5 h, 10 µM: 105% for the first, 94.6% for the second.

Compared with `CC/C(=N\C(N)=O)c1ccccc1` [CBK009865], `CC1C(c2ccccc2)CCC(C(=O)O)C1C(=O)O` (centres unmarked) [CBK286566] is higher in viability at 28.5 h, 10 µM: 82.9% for the first, 90.5% for the second.

First: Cc1cc2cn([C@@H]3O[C@H](CO)[C@H](O)C3O)c(=O)nc2[nH]1 (some centres unmarked) [CBK201219]
Second: CNCC(=O)N[C@H]1CCN2C(=O)c3ccc(Cl)cc3NC(=O)[C@@H]2C1 [CBK289566]
The viability at 28.5 h, 10 µM of the first is higher: 98% for the first, 83.6% for the second.

Compared with `Cc1nc2sc3c(c2c2nc(CCC(=O)O)nn12)CC(C)(C)OC3` [CBK269168], `CCOC(=O)c1c(NC(=O)c2cc(-c3ccc(C)c(C)c3)nc3ccccc23)sc2c1CCC(C)C2` (centres unmarked) [CBK262627] is higher in viability at 28.5 h, 10 µM: 81.4% for the first, 96.4% for the second.

Compared with `OC(COc1cccc(Oc2ccccc2)c1)CN1CCN(c2ccccc2F)CC1` (centres unmarked) [CBK267468], `O=C(NCCN1CCCCC1)c1cccc(Oc2ccccc2)c1` [CBK270335] is higher in viability at 28.5 h, 10 µM: 95.5% for the first, 98.2% for the second.

Compared with `O=[N+]([O-])c1ccc(N2CCN(S(=O)(=O)c3ccccc3)CC2)cc1Sc1cccc2cccnc12` [CBK263821], `Cc1ccc(S(=O)(=O)N2CCC(n3c(=O)[nH]c4ccccc43)CC2)cc1Cl` [CBK149691] is lower in viability at 28.5 h, 10 µM: 100% for the first, 90.8% for the second.

Compared with `CCCCC(=O)NC(c1ccc(Cl)cc1)c1cc([N+](=O)[O-])c2cccnc2c1O` (centres unmarked) [CBK293938], `CC(=O)CCc1oc2c([N+](=O)[O-])cccc2c1-c1ccc(C)o1` [CBK262476] is lower in viability at 28.5 h, 10 µM: 90.1% for the first, 89.4% for the second.

First: O=C(Oc1ccc(-n2ccnc2)cc1)c1ccc(-c2ccccc2)cc1 [CBK095145]
Second: O=C(O)C1(Cc2ccc(-c3ccccc3)cc2)CCNC1 (centres unmarked) [CBK281687]
The viability at 28.5 h, 10 µM of the first is higher: 93.3% for the first, 91.2% for the second.

Going from `Cc1nn(C)c(C)c1CCC(=O)OCc1cc(=O)n2ccccc2n1` [CBK305690] to `COCCc1noc(C(C)NC(=O)Cc2cccc(O)c2)n1` (centres unmarked) [CBK307493], the viability at 28.5 h, 10 µM rises from 90.8% to 99.5%.

Going from `O=C(c1cccs1)N1CCC(c2nnc3n2CCCCC3)CC1` [CBK284626] to `O=C(c1cccs1)N1CCC(n2c(=O)oc3ccccc32)CC1` [CBK284347], the viability at 28.5 h, 10 µM falls from 95.7% to 88.2%.

First: Fc1ccccc1CCOc1cncc(Cl)n1 [CBK176038]
Second: Clc1ccccc1CN(CCCn1ccnc1)Cc1c[nH]cn1 [CBK282988]
The viability at 28.5 h, 10 µM of the first is lower: 86% for the first, 100% for the second.

Compared with `Cc1noc(C)c1Cn1cc(NS(=O)(=O)c2cccs2)cn1` [CBK044394], `O=S(=O)(NCCc1cccs1)c1cc2c(N3CCNCC3)nccc2s1` [CBK041299C] is higher in viability at 28.5 h, 10 µM: 97.9% for the first, 104% for the second.

Going from `O=C(O)c1ccccc1C(=O)OCCN1CCOCC1` [CBK261462] to `Cc1ccc(OC(C)C(=O)NCCCN2CCOCC2)cc1C` (centres unmarked) [CBK268109], the viability at 28.5 h, 10 µM rises from 85.4% to 94.3%.

First: O=c1cc(CN2CCC(Oc3nccnc3OCc3ccc(Cl)c(Cl)c3)CC2)[nH]c(=O)[nH]1 [CBK153784]
Second: O=C1CCC(=O)N1CCOc1nccnc1N1CCN(Cc2ccc([N+](=O)[O-])cc2)CC1 [CBK084294]
The viability at 28.5 h, 10 µM of the first is higher: 96.6% for the first, 93% for the second.

Going from `Nc1nonc1N/N=C/c1ccccc1F` [CBK028838] to `CCCCCCC(C)n1c(-c2nonc2N)nc2ccccc21` (centres unmarked) [CBK062648], the viability at 28.5 h, 10 µM rises from 68.4% to 94.2%.

Going from `O=C(CSc1nnc(-c2cccnc2)n1-c1ccccc1)Nc1ccc(Br)cc1` [CBK265203] to `Cc1cc(C)cc(NC(=O)CSc2ncnc3c2oc2ccccc23)c1` [CBK287394], the viability at 28.5 h, 10 µM falls from 100% to 90.5%.

Compared with `Cc1oc(-c2ccccc2)nc1C(=O)N1CCCN(C)CC1` [CBK073940C], `Cc1cc(=O)c2ccccc2n1CC(=O)N1CCC2(CCO2)CC1` [CBK306809] is lower in viability at 28.5 h, 10 µM: 105% for the first, 88.5% for the second.

Going from `Cc1ccccc1Cn1c(CN2CCCCC2C)nc2c1c(=O)n(C)c(=O)n2C` (centres unmarked) [CBK269199] to `Cn1c(N2CCC(C(=O)NCC3CC3)CC2)nc2ccccc21` [CBK283957], the viability at 28.5 h, 10 µM rises from 91.2% to 91.6%.

Compared with `COc1cc(-c2cncc(NCC(C)(C)CO)n2)cc(OC)c1OC` [CBK037854], `CCCNc1cncc(-c2cccnc2)n1` [CBK037921] is lower in viability at 28.5 h, 10 µM: 105% for the first, 99.1% for the second.

Going from `Nc1n[nH]c2nc(-c3ccccc3)c3c(c12)CCC3` [CBK288178] to `COc1ccc(Nc2cc(-c3cccc(N)c3)ncn2)c(C)c1` [CBK091035], the viability at 28.5 h, 10 µM rises from 88.8% to 97.1%.

Going from `O=C(c1cnc2ccccc2n1)N1CCc2ccccc21` [CBK200267] to `CN(C)CC(=O)N1c2ccccc2CCc2ccc(NC(=O)c3ccccc3)cc21` [CBK261289C], the viability at 28.5 h, 10 µM falls from 117% to 94.2%.

First: O=C(Nc1cccc2ccccc12)C(c1ccccc1)N1CCOCC1 (centres unmarked) [CBK269388]
Second: Cc1cc(NC(=O)c2ccc3c(c2)OCCO3)c2ccccc2n1 [CBK122739]
The viability at 28.5 h, 10 µM of the first is lower: 102% for the first, 103% for the second.

Compared with `O=C(Nc1ccc(Cl)c(S(=O)(=O)N2CCCC2)c1)c1cnccn1` [CBK295176], `O=C(O)c1cccc(Nc2nc(Nc3ccccc3)nc(N3CCCC3)n2)c1` [CBK286863] is higher in viability at 28.5 h, 10 µM: 87.9% for the first, 89.8% for the second.

First: CCCOc1ccc(CCNc2ncnc(N)n2)cc1 [CBK262744]
Second: O=[N+]([O-])c1ccc(OCCCNCCO)cc1 [CBK262244]
The viability at 28.5 h, 10 µM of the first is lower: 90.1% for the first, 92.3% for the second.

Going from `COC(=O)c1ccc(CN2CCN(CCN3C(=O)c4cccc5cccc(c45)C3=O)CC2)cc1` [CBK074518] to `CN(C)S(=O)(=O)N(CC(=O)N1CCN(Cc2ccc3c(c2)OCO3)CC1)c1ccccc1` [CBK267994], the viability at 28.5 h, 10 µM rises from 88.8% to 102%.

Compared with `CCNCCNc1ccc([N+](=O)[O-])cc1` [CBK264179C], `CCN(CC(=O)NCc1ccc(C)cc1)S(=O)(=O)c1ccc(C)cc1` [CBK267511] is higher in viability at 28.5 h, 10 µM: 94.1% for the first, 110% for the second.

Compared with `COc1ccc(F)c(CN(CC(C)(C)CN)C(=O)Nc2ccccc2C(F)(F)F)c1` [CBK002412C], `CCCN(CC1CCCO1)C(=O)c1cc2ccc(OC)cc2n1C` (centres unmarked) [CBK282139] is higher in viability at 28.5 h, 10 µM: 90.1% for the first, 92.8% for the second.

First: O=C(CC1NC(=O)NC1=O)Nc1ccccc1 (centres unmarked) [CBK267331]
Second: O=C(O)CCCC(=O)Nc1ccccc1C(=O)NCc1ccco1 [CBK299840]
The viability at 28.5 h, 10 µM of the first is higher: 90.4% for the first, 85.8% for the second.

Going from `Cc1ccc(C23CC4CC(CC(C(=O)NC(C(=O)O)C(C)C)(C4)C2)C3)cc1` (centres unmarked) [CBK264924] to `CC(C)NC(=O)[C@H]1O[C@H](CCN2CCN(c3ccccn3)CC2)CC[C@@H]1O` [CBK288722], the viability at 28.5 h, 10 µM falls from 110% to 90.7%.

Going from `COc1ccccc1CC(=O)N[C@@H]1CCN(Cc2cccnc2)C[C@H]1O` [CBK307200] to `COc1ccccc1C1CC(c2ccccc2)=NN1C(=O)CCC(=O)O` (centres unmarked) [CBK287088], the viability at 28.5 h, 10 µM falls from 100% to 83.4%.

Compared with `Nc1nc(=O)c2cnc3c(Cl)cccc3c2s1` [CBK291229], `O=C(CCn1c(C(F)F)cc2cccnc21)NCc1ccncc1` [CBK285027] is higher in viability at 28.5 h, 10 µM: 89.5% for the first, 103% for the second.

Compared with `COc1ccc(S(=O)(=O)NC[C@H]2C[C@@H]3CC[N@]2C[C@@H]3CN2CCOCC2)cc1` [CBK288761], `CN(CC(=O)NC1CCCCC1)S(=O)(=O)c1ccc(F)cc1` [CBK091832] is higher in viability at 28.5 h, 10 µM: 87.7% for the first, 98.6% for the second.

Compared with `CCOCC1CN(c2cc(CO)c(F)cn2)CCO1` (centres unmarked) [CBK304756], `CCn1cc(C2CN(S(=O)(=O)c3c(C)c(C)cc(C)c3C)CCO2)cn1` (centres unmarked) [CBK306171] is lower in viability at 28.5 h, 10 µM: 92% for the first, 63.8% for the second.

Going from `Cc1nn(C)c(Cl)c1S(=O)(=O)NCc1ccc(C(F)(F)F)c(F)c1` [CBK062111] to `Cc1ccccc1Sc1cc(C(F)(F)F)ccn1` [CBK115233], the viability at 28.5 h, 10 µM rises from 93.8% to 94.4%.

First: COc1ccc(CN2C(=O)COC[C@@H]2[C@H](O)c2ccc(NC(=O)c3ccc(OC)cc3)cc2)cc1 [CBK289675]
Second: COc1ccc(-c2csc(/C(C#N)=C/Nc3ccc(S(=O)(=O)Nc4nccs4)cc3)n2)cc1 [CBK262374]
The viability at 28.5 h, 10 µM of the first is higher: 95.9% for the first, 94.6% for the second.

Going from `OCCOc1ccccc1-c1nnco1` [CBK001972] to `COc1cnc(/C=C\c2ccccc2)c(NC(=O)c2ccco2)n1` [CBK145361], the viability at 28.5 h, 10 µM falls from 92.6% to 90.4%.

Going from `COc1cccc(/C=N/c2cc(S(=O)(=O)c3ccc(O)c(/N=C/c4cccc(OC)c4O)c3)ccc2O)c1O` [CBK261225] to `COc1cc(NC(=O)COc2cccc3ccccc23)c(C(=O)O)cc1OC` [CBK268253], the viability at 28.5 h, 10 µM falls from 92.4% to 76.6%.

Going from `CSCCN1CCC2(CC1)CN(CC(N)=O)c1ccccc12` [CBK126801] to `O=C1N[C@]2(CCc3ccccc31)CN(CC1CC=CCC1)C[C@H]2CO` (some centres unmarked) [CBK284794], the viability at 28.5 h, 10 µM rises from 92.9% to 96%.

First: CCN(CC)C(=O)c1ccsc1NS(=O)(=O)c1cc(Br)ccc1OC [CBK042327]
Second: CC(N(C)CC(=O)NCc1ccc(OCC(N)=O)cc1)C(C)(C)C (centres unmarked) [CBK306338]
The viability at 28.5 h, 10 µM of the first is higher: 103% for the first, 99.2% for the second.

First: Cc1nnc(CN2CCOC(c3nc(C(C)(C)C)cs3)C2)n1C (centres unmarked) [CBK305772]
Second: CSc1nnc(-c2ccc(C(C)(C)C)cc2)n1Cc1ccco1 [CBK017071]
The viability at 28.5 h, 10 µM of the first is higher: 93.1% for the first, 92.1% for the second.

Compared with `Cc1nn(CC(=O)N2CCCCCC2)c(=O)c2cc3ccsc3n12` [CBK284060], `O=C(Cc1ccsc1)N1CCC[C@@H]1Cn1c(=O)oc2ccccc21` [CBK284530] is higher in viability at 28.5 h, 10 µM: 84.8% for the first, 91.2% for the second.

First: CC(C)Nc1cncc(SCCN(C)C)n1 [CBK105292]
Second: Cc1cccc(C)c1NC(=O)c1nccnc1C(=O)O [CBK260915]
The viability at 28.5 h, 10 µM of the first is lower: 90.6% for the first, 97% for the second.

Compared with `Cc1nnc(N2CCn3nc(C(O)Cc4ccccc4)cc3C2)s1` (centres unmarked) [CBK307152], `O=C(CCc1ccccc1)Nc1cccc(N2C(=O)C3C4c5ccccc5C(c5ccccc54)C3C2=O)c1` (centres unmarked) [CBK265409] is higher in viability at 28.5 h, 10 µM: 86% for the first, 91.1% for the second.

Compared with `O=C(c1cncc(O)c1)N1C2CCC1CC(c1ccc(F)cc1)C2` (centres unmarked) [CBK283764], `O=C(CN1CCN(CC(=O)NC2CC2)CC1)Nc1cc(Cl)ccc1Cl` [CBK306091] is lower in viability at 28.5 h, 10 µM: 96.4% for the first, 84.8% for the second.

With `NS(=O)(=O)c1ccc(CCNC(=O)/C=C/c2ccccc2Cl)cc1` [CBK264379] the viability at 28.5 h, 10 µM was 94%.
